Measurements reported in patent US20110071158A1, “NEW COMPOUNDS” (BOEHRINGER INGELHEIM INTERNATIONAL GMBH, priority 2009, published 2011).

What was measured:
[1] = molecular target: T1, Xenopus laevis Aurora B/INCENP complex (Xenopus laevis, UniProt Q6DE08); assay: Aurora-B kinase assay (radioactive enzyme inhibition); assay type: biochemical
T1 construct: equipped at the N-terminal position with a GST tag (amino acids 60-361); GST (N, cleaved yes); made in house; host or cells: E. coli BL21 (DE3)
Description: A radioactive enzyme inhibition assay was developed using E. coli-expressed recombinant Xenopus laevis Aurora B wild-type protein equipped at the N-terminal position with a GST tag (amino acids 60-361) in a complex with Xenopus laevis INCENP (amino acids 790-847), which is obtained from bacteria and purified. In equivalent manner a Xenopus laevis Aurora B mutant (G96V) in a complex with Xenopus laevis INCENP^790-847 may also be used.
The coding sequence for Aurora-B^60-361 from Xenopus laevis is cloned into a modified version of pGEX-6T (Amersham Biotech) via BamHI and SalI cutting sites. The vector contains two cloning cassettes which are separated by a ribosomal binding site, allowing bi-cistronic expression. In this configuration Xenopus laevis Aurora B is expressed by the first cassette, and the Xenopus laevis INCENP^790-847 is expressed by the second cassette. The resulting vector is pAUB-IN^847.
First of all the E. coli strain BL21 (DE3) is co-transformed with pUBS520 helper plasmid and pAUB-IN^847, after which protein expression is induced using 0.3 mM IPTG at an OD600 of 0.45-0.7. The expression is then continued for approx. 12-16 h at 23-25° C. with agitation.
The bacteria are then removed by centrifuging and the pellet is lysed in lysis buffer (50 mM Tris/Cl pH 7.6, 300 mM NaCl, 1 mM DTT, 1 mM EDTA, 5% glycerol, Roche Complete Protease Inhibitor tablets) using ultrasound, using 20-30 mL lysis buffer per litre of E. coli culture. The lysed material is freed from debris by centrifugation (12000 rpm, 45-60 min, JA20 rotor). The supernatant is incubated with […] of equilibrated GST Sepharose Fast Flow (Amersham Biosciences) per litre of E. coli culture for 4-5 h at 4° C. Then the column material is washed with 30 volumes of lysis buffer and then equilibrated with 30 volumes of cleavage buffer (50 mM Tris/Cl pH 7.6, 150 mM NaCl, 1 mM DTT, 1 mM EDTA). To cleave the GST tag from Aurora B, 10 units of Prescission Protease (Amersham Biosciences) are used per milligram of substrate and the mixture is incubated for 16 h at 4° C. The supernatant which contains the cleavage product is loaded onto a 6 mL Resource Q column (Amersham Biosciences) equilibrated with ion exchange buffer (50 mM Tris/Cl pH 7.6, 150 mM NaCl, 1 mM DTT, 1 mM EDTA). The Aurora B/INCENP complex is caught as it flows through, then concentrated and loaded onto a Superdex 200 size exclusion chromatography (SEC) column equilibrated with SEC buffer (10 mM Tris/Cl pH 7.6, 150 mM NaCl, 1 mM DTT, 1 mM EDTA). Fractions which contain the AuroraB/INCENP complex are collected and concentrated using Vivaspin concentrators (molecular weight exclusion 3000-5000 Da) to a final concentration of 12 mg/mL. Aliquots (e.g. 240 ng/μL) for kinase assays are transferred from this stock solution into freezing buffer (50 mM Tris/Cl pH 8.0, 150 mM NaCl, 0.1 mM EDTA, 0.03% Brij-35, 10% glycerol, 1 mM DTT) and stored at −80° C.
Test substances are placed in a polypropylene dish (96 wells, Greiner #655 201), in order to cover a concentration frame of 10 μM-0.0001 μM. The final concentration of DMSO in the assay is 5%. 30 μL of protein mix (50 mM Tris/Cl pH 7.5, 25 mM MgCl2, 25 mM NaCl, 167 μM ATP, 10 ng Xenopus laevis Aurora B/INCENP complex in freezing buffer) are pipetted into the 10 μl of test substance provided in 25% DMSO and this is incubated for 15 min at RT. Then 10 μL of peptide mix (100 mM Tris/Cl pH 7.5, 50 mM MgCl2, 50 mM NaCl, 5 μM NaF, 5 μM DTT, 1 μCi gamma-P33-ATP [Amersham], 50 μM substrate peptide [biotin-EPLERRLSLVPDS or multimers thereof, or biotin-EPLERRLSLVPKM or multimers thereof, or biotin-[…]]) are added. The reaction is incubated for 75 min (ambient temperature) and stopped by the addition of 180 μL of 6.4% trichloroacetic acid and incubated for 20 min on ice. […]

PTK2 enzyme = molecular target: T2, PTK2 enzyme (Homo sapiens, UniProt Q05397); assay: PTK2 enzyme test, Assay 2 (DELFIA, poly-Glu-Tyr substrate, antibody PT66); assay type: biochemical; conditions: Assay 2 (values marked *); 1 h pre-incubation, 0.5% DMSO
T2 construct: purchased Invitrogen PV3832
Description: This test uses active PTK2 enzyme (Invitrogen Code PV3832) and poly-Glu-Tyr (4:1, Sigma P-0275) as the kinase substrate. The kinase activity is detected by means of the phosphorylation of the substrate in a DELFIA™ assay. The phosphorylated substrate is detected with the europium-labelled phosphotyrosine antibody PT66 (Perkin Elmer, No.: AD0040).
In order to determine concentration-activity curves with PTK2-inhibitors the compounds are serially diluted first of all in 10% DMSO/H2O and then in kinase dilution buffer (20 mM TRIS/HCl pH 7.5, 0.1 mM EDTA, 0.1 mM EGTA, 0.286 mM sodium orthovanadate, 10% glycerol with the addition of freshly prepared BSA (fraction V, 1 mg/mL) and DTT (1 mM)) and 10 μL of each dilution are dispensed per well in a 96-well microtitre plate (clear U-shaped base plate, Greiner No. 650101) (the inhibitors are tested in duplicates) and mixed with 10 μL/well of PTK2 kinase (0.01 μg/well). PTK2 kinase is diluted accordingly beforehand with kinase dilution buffer. The diluted PTK2 inhibitor and the PTK2 kinase are pre-incubated for 1 h at RT and shaken at 500 revolutions per min. Then 10 μL/well poly-Glu-Tyr substrate (25 μg/well poly-Glu-Tyr, 0.05 μg/well biotinylated poly-Glu-Tyr dissolved in 250 mM TRIS/HCl pH 7.5, 9 mM DTT) are added. The reaction is started by the addition of 20 μL of ATP Mix (30 mM TRIS/HCl pH 7.5, 0.02% Brij, 0.2 mM sodium orthovanadate, 10 mM magnesium acetate, 0.1 mM EGTA, 1× phosphatase inhibitor cocktail 1 (Sigma, No.: P2850), 50 μM ATP (Sigma, No.: A3377; 15 mM stock solution))—the final concentration of DMSO is 0.5%. After 1 h kinase reaction (the plates are shaken at 500 rpm), the reaction is stopped by the addition of 12 μL/well of 100 mM EDTA, pH 8, and shaken for a further 5 min at RT (500 U/min). 55 μL of the reaction mixture are transferred into a streptavidin plate (Strepta Well High Bind (transparent, 96-well) made by Roche, No.: 11989685001) and incubated for 1 h at RT (shaking at 500 rpm). Then the microtitre plate is washed five times with 200 μL/well D-PBS (Invitrogen, No. 14190). 100 μL of a solution containing DELFIA Eu-N1 Anti-Phosphotyrosine PT66 antibody (Perkin Elmer, No.: AD0040, diluted 1:9000 in DELFIA test buffer (Perkin Elmer, No.: 1244-111)) is then added and it is incubated for 1 h at RT (shaking at 500 rpm). Then the plate is washed five times with 200 μL/well DELFIA washing buffer (Perkin Elmer, No.: 1244-114), 200 μL/well strengthening solution (Perkin Elmer, No.: 1244-105) is added and the whole is incubated for 10 min at RT (shaking at 300 rpm).
The time-delayed europium fluorescence is then measured in a microtitre plate reader (Victor, Perkin Elmer). The positive control consists of wells that contain solvent (0.5% DMSO in test buffer) and display uninhibited kinase activity. Wells that contain test buffer instead of enzyme act as a control for the background kinase activity.
The IC50 values are determined from concentration-activity analyses by iterative calculation using a sigmoid curve analysis algorithm (FIFTY, based on Graph PAD Prism Version 3.03) with a variable Hill coefficient.

T1 sequence (Q6DE08 60-361): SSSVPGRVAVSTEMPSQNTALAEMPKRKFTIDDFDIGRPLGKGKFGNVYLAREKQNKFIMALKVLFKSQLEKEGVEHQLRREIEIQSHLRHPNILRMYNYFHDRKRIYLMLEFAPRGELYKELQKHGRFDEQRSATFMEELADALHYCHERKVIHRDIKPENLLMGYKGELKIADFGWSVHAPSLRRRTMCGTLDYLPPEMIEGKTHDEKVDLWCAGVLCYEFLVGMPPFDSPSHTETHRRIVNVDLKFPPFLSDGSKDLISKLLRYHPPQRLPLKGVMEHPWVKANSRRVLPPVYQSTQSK
T1 sequence (O13024 790-847 partner): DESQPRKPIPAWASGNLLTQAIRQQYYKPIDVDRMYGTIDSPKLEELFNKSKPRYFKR
T2 sequence (Q05397 whole entry): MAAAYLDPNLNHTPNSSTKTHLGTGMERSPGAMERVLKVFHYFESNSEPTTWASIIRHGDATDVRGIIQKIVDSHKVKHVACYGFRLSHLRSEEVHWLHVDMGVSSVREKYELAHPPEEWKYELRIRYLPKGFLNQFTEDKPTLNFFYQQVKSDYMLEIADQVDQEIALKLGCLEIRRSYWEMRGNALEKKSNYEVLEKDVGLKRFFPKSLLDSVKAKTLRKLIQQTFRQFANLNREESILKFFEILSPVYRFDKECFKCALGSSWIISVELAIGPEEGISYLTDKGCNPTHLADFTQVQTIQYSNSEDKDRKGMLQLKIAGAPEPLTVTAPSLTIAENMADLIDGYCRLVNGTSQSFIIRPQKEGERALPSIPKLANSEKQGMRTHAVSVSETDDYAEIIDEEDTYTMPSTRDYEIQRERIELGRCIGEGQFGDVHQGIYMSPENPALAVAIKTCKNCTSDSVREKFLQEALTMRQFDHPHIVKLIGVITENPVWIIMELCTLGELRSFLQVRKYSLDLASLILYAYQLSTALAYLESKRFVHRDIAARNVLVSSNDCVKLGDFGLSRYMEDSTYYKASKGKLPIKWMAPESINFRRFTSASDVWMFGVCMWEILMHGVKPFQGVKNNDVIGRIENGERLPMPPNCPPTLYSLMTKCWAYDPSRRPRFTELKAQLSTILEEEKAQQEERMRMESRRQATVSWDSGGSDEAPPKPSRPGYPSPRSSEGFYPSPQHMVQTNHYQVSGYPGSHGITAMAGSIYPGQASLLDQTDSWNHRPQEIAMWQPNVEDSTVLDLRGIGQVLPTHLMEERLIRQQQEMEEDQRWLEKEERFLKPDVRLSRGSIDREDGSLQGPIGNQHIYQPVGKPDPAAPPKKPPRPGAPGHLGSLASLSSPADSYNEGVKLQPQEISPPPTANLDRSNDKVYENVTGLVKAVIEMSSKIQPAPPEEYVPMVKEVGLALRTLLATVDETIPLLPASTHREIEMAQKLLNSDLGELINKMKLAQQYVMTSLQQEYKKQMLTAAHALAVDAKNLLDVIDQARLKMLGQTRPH

SMILES | IC50 [1] [nM] | IC50 (PTK2 enzyme) [nM]
COc1cc(C(=O)NC2CCN(C)CC2)c(F)cc1Nc1ncc(Cl)c(N[C@@H]2CCC[C@H]2N(C)S(C)(=O)=O)n1 [Example I-127, 4-{5-chloro-4-[(1R,2R)-2-(methanesulphonyl-methyl-amino)-cyclopentylamino]-pyrimidin-2-ylamino}-2-fluoro-5-methoxy-N-(1-methyl-piperidin-4-yl)-benzamide] | 417 | 0.53
COc1cc(C(=O)NC2CCN(C)CC2)c(Cl)cc1Nc1ncc(C(F)(F)F)c(N[C@@H]2CCC[C@H]2N(C)S(C)(=O)=O)n1 [Example I-131] | 1010 | 0.29
COc1cc(N2CCNCC2)c(Cl)cc1Nc1ncc(C(F)(F)F)c(N[C@@H]2CCC[C@H]2N(C)S(C)(=O)=O)n1 [Example I-134] | 778 | 0.5
CNC(=O)c1cc(OC)c(Nc2ncc(C(F)(F)F)c(N[C@@H]3CCCC[C@H]3NS(C)(=O)=O)n2)cc1Cl [Example I-137] | 1070 | 0.44
C#CCNC(=O)c1cc(OC)c(Nc2ncc(C(F)(F)F)c(N[C@@H]3CCC[C@H]3NS(C)(=O)=O)n2)cc1C [Example I-138] | 422 | 0.41
COc1cc(N2CCN(C(C)(C)C)CC2)c(C)cc1Nc1ncc(C(F)(F)F)c(N[C@@H]2CCC[C@H]2N(C)S(C)(=O)=O)n1 [Example I-140] | > 5000 | 0.86
COc1cc(C(=O)NC2CCN(C)CC2)c(F)cc1Nc1ncc(Br)c(N[C@@H]2CCC[C@H]2N(C)S(C)(=O)=O)n1 [Example I-142] | 311 | 0.5
COc1ccc(C(=O)NCCN(C)C)cc1Nc1ncc(C(F)(F)F)c(N[C@@H]2CCCC[C@H]2N(C)S(C)(=O)=O)n1 [Example I-144] | > 9000 | 0.76
COc1cc(NC(=O)[C@H]2CCCN2C)ccc1Nc1ncc(C(F)(F)F)c(N[C@@H]2CCCC[C@H]2N(C)S(C)(=O)=O)n1 [Example I-146] | 413 | 0.58
CNC(=O)c1cc(OC)c(Nc2ncc(C(F)(F)F)c(N[C@@H]3CCCC[C@H]3NS(C)(=O)=O)n2)cc1C [Example I-152] | 1590 | 0.41
CCc1cc(Nc2ncc(C(F)(F)F)c(N[C@@H]3CCC[C@H]3N(C)S(C)(=O)=O)n2)c(OC)cc1N1CCNCC1 [Example I-153] | > 10000 | 0.69
COc1cc(NC(=O)C2CCN(C)CC2)ccc1Nc1ncc(C(F)(F)F)c(N[C@@H]2CCCC[C@H]2N(C)S(C)(=O)=O)n1 [Example I-155] | 245 | 0.93
COc1cc(N2CCN(C(C)(C)C)CC2)c(C)cc1Nc1ncc(C(F)(F)F)c(N[C@@H]2CCCC[C@H]2N(C)S(C)(=O)=O)n1 [Example I-158] | > 10000 | 1
COCCN1CCC(NC(=O)c2cc(OC)c(Nc3ncc(Cl)c(N[C@@H]4CCC[C@H]4N(C)S(C)(=O)=O)n3)cc2Cl)CC1 [Example I-166] | 1140 | 0.49
COc1cc(C(=O)NC2CCOCC2)c(C)cc1Nc1ncc(C(F)(F)F)c(N[C@@H]2CCC[C@H]2NS(C)(=O)=O)n1 [Example I-195] | 641 | 0.32
